Reference: US9776995B2, “Bicyclic sulfonamide compounds as sodium channel inhibitors” (AMGEN INC., priority 2013, dated 2017)
Where two headings read alike, the source gives them in different places.

Columns and labels:
Nav 1.7 = Nav 1.7 (Homo sapiens (Human), UniProt Q15858); assay: in-vitro Nav 1.7 PX data; assay type: cell-based
Nav 1.5 = Nav 1.5 (Homo sapiens (Human), UniProt Q14524); assay: in-vitro Nav 1.5 PX data; conditions: read-out: Nav 1.5 PX IC50
Chain of Nav 1.5 (Q14524 whole entry): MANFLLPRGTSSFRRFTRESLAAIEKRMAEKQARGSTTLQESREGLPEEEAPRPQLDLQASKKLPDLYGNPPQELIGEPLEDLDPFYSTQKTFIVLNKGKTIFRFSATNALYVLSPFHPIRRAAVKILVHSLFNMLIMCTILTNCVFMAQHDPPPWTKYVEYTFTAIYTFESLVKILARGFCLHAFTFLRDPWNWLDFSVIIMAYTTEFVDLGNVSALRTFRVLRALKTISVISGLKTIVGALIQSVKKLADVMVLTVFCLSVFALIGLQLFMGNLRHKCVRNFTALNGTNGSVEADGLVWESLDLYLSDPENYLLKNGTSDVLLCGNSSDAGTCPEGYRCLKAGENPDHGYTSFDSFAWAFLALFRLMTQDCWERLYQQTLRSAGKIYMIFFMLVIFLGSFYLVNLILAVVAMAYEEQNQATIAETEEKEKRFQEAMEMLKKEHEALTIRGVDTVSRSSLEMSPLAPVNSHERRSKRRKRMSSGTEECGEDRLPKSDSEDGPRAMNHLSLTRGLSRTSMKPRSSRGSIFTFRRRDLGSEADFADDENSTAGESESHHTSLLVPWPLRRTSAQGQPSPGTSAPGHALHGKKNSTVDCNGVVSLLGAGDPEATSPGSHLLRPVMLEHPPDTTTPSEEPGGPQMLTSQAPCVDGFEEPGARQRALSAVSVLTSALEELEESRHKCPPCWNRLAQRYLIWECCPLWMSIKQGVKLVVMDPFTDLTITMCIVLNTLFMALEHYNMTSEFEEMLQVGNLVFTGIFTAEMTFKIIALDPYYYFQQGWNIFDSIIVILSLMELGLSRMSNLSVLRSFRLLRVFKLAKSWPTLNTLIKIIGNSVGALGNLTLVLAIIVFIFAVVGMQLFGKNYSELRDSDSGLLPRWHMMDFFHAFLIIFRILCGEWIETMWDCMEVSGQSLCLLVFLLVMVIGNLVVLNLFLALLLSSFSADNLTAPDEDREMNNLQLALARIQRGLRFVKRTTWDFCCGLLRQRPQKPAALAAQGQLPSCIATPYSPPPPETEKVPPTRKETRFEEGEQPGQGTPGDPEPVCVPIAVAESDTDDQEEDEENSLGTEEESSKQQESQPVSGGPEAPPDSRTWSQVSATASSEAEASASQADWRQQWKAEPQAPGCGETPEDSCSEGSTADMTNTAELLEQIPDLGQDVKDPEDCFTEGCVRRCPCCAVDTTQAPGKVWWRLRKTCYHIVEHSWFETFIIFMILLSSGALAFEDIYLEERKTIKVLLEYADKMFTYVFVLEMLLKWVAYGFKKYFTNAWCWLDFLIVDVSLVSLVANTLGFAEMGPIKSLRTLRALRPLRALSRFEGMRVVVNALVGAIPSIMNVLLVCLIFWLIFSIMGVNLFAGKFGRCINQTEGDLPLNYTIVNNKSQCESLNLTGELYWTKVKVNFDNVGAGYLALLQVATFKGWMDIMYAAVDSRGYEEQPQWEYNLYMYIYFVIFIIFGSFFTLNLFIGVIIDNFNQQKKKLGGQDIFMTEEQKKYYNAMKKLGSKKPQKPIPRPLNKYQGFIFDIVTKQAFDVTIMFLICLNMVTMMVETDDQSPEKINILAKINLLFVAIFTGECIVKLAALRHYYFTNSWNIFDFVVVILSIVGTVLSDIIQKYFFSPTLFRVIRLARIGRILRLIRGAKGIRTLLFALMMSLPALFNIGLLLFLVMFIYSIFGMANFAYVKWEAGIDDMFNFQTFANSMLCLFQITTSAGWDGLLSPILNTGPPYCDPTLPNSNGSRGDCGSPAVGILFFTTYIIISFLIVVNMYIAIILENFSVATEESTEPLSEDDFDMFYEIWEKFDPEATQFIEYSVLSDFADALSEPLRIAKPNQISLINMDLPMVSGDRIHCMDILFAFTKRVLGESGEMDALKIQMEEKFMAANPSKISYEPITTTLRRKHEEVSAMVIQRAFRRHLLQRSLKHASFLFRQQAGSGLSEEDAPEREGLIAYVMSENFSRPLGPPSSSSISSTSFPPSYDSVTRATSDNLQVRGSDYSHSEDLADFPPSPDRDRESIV

Chain of Nav 1.7 (Q15858 whole entry): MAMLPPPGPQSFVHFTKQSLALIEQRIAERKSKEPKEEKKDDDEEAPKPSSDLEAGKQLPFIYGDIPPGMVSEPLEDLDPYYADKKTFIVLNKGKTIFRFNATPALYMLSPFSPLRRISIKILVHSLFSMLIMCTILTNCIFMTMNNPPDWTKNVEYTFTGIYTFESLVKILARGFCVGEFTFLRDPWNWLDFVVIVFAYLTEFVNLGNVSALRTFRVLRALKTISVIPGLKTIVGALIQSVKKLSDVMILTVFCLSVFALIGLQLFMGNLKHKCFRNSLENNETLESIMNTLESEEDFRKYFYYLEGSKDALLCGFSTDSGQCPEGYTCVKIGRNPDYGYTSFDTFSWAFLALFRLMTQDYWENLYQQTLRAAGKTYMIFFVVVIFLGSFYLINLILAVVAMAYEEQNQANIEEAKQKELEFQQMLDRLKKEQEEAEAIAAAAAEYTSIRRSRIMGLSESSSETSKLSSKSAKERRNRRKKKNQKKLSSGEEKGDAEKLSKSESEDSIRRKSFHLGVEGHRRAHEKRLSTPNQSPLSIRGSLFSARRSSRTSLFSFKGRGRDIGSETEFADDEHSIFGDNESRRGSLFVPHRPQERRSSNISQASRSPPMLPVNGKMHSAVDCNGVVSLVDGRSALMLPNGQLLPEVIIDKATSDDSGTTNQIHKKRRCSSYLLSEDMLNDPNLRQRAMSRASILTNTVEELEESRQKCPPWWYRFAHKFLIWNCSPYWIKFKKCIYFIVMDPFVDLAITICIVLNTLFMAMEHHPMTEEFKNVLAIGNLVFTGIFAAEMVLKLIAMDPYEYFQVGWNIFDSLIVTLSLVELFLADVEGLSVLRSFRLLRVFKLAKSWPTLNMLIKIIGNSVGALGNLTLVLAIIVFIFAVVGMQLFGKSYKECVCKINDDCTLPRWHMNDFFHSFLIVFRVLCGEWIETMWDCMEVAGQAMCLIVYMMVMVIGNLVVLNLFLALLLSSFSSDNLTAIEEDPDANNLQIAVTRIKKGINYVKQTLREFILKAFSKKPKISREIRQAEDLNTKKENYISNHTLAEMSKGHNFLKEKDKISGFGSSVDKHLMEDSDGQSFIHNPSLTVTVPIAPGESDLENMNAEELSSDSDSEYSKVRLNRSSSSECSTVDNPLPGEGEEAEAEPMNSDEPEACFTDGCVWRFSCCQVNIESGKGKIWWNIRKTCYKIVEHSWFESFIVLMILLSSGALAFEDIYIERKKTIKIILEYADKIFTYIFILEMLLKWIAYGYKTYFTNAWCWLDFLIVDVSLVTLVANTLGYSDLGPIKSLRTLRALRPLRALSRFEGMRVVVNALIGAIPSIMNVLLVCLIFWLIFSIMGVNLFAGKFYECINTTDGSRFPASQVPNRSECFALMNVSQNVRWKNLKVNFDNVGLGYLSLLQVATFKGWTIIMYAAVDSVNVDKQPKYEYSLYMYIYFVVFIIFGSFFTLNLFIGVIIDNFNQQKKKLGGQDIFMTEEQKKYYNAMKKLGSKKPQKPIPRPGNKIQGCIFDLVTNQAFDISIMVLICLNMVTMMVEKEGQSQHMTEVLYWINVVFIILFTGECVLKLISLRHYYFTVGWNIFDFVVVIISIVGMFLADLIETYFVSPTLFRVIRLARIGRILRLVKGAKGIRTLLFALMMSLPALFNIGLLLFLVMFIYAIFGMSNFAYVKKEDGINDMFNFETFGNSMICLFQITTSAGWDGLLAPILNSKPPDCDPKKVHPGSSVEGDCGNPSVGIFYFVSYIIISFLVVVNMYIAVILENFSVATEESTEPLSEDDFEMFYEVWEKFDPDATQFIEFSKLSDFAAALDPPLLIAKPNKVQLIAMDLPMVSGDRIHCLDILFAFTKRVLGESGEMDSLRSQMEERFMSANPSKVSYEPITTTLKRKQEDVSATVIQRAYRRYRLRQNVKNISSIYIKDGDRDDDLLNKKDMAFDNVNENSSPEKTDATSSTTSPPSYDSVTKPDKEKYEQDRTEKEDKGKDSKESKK

Molecule: 1-(2-cyano-5-methoxy-2′-methyl-4-biphenylyl)-N-1,3,4-thiadiazol-2-yl-6-isoquinolinesulfonamide [Example 220]
- IC50 (Nav 1.7; in-vitro PX): 0.0401 µM
- IC50 (Nav 1.5; in-vitro PX): > 10 µM

Molecule: 1-(3′-chloro-2-cyano-5-methoxy-5′-methyl-4-biphenylyl)-N-1,3,4-thiadiazol-2-yl-6-isoquinolinesulfonamide [Example 225]
- IC50 (Nav 1.7; in-vitro PX): 0.0111 µM
- IC50 (Nav 1.5; in-vitro PX): > 10 µM

Molecule: 1-(5-cyano-4-(5-fluoro-2-methoxy-3-pyridinyl)-2-methoxyphenyl)-N-1,3,4-thiadiazol-2-yl-6-isoquinolinesulfonamide [Example 223]
- IC50 (Nav 1.7; in-vitro PX): 0.0723 µM
- IC50 (Nav 1.5; in-vitro PX): > 10 µM

Molecule: COc1cc(-c2cccc(C(F)(F)F)c2)c(C#N)cc1-c1nccc2cc(S(=O)(=O)Nc3ccon3)ccc12 [Example 1, 1-(2-CYANO-5-METHOXY-3′-(TRIFLUOROMETHYL)-[1,1′-BIPHENYL]-4-YL)-N-(ISOXAZOL-3-YL)ISOQUINOLINE-6-SULFONAMIDE]
- IC50 (Nav 1.7; in-vitro Nav 1.7 PX data): 0.0547 µM
- IC50 (Nav 1.5; in-vitro Nav 1.5 PX data): > 10 µM

Molecule: COc1cc(-c2cc(F)cc(F)c2)ccc1-c1nccc2cc(S(=O)(=O)Nc3ccsn3)ccc12 [Example 5, 1-(3′,5′-DIFLUORO-3-METHOXY-[1,1′-BIPHENYL]-4-YL)-N-(ISOTHIAZOL-3-YL)ISOQUINOLINE-6-SULFONAMIDE 2,2,2-TRIFLUOROACETATE]
- IC50 (Nav 1.7): 0.337 µM
- IC50 (Nav 1.5; in-vitro PX data): > 10 µM

Molecule: COc1cc(-c2cccc(C(F)(F)F)c2)ccc1-c1nccc2cc(S(=O)(=O)Nc3ccon3)ccc12 [Example 6, N-(ISOXAZOL-3-YL)-1-(3-METHOXY-3′-(TRIFLUOROMETHYL)-[1,1′-BIPHENYL]-4-YL)ISOQUINOLINE-6-SULFONAMIDE]
- IC50 (Nav 1.7): 0.0789 µM
- IC50 (Nav 1.5; in-vitro PX data): > 10 µM

Molecule: COc1cc(-c2cccc(F)c2)c(Cl)cc1-c1nccc2cc(S(=O)(=O)Nc3ncon3)ccc12 [Example 7, 1-(2-CHLORO-3′-FLUORO-5-METHOXY-[1,1′-BIPHENYL]-4-YL)-N-(1,2,4-OXADIAZOL-3-YL)ISOQUINOLINE-6-SULFONAMIDE 2,2,2-TRIFLUOROACETATE]
- IC50 (Nav 1.7): 0.0477 µM
- IC50 (Nav 1.5; in-vitro PX data): > 10 µM

Molecule: COc1cc(-c2cccc(F)c2)c(Cl)cc1-c1nncc2cc(S(=O)(=O)Nc3nncs3)ccc12 [Example 9, 1-(2-CHLORO-3′-FLUORO-5-METHOXY-[1,1′-BIPHENYL]-4-YL)-N-(1,3,4-THIADIAZOL-2-YL)PHTHALAZINE-6-SULFONAMIDE]
- IC50 (Nav 1.7; in-vitro PX data): 0.112 µM
- IC50 (Nav 1.5; in-vitro PX data): > 10 µM

Molecule: COc1cc(-c2cccc(F)c2)c(Cl)cc1-c1nncc2cc(S(=O)(=O)Nc3ccon3)ccc12 [Example 10, 1-(2-CHLORO-3′-FLUORO-5-METHOXY-[1,1′-BIPHENYL]-4-YL)-N-(ISOXAZOL-3-YL)PHTHALAZINE-6-SULFONAMIDE]
- IC50 (Nav 1.7; in-vitro PX data): 0.0841 µM
- IC50 (Nav 1.5; in-vitro PX data): > 10 µM

Molecule: COc1cc(-c2cccc(F)c2)c(Cl)cc1-c1n[nH]c(=O)c2cc(S(=O)(=O)Nc3nncs3)ccc12 [Example 14, 1-(2-CHLORO-3′-FLUORO-5-METHOXY-[1,1′-BIPHENYL]-4-YL)-4-OXO-N-(1,3,4-THIADIAZOL-2-YL)-3,4-DIHYDROPHTHALAZINE-6-SULFONAMIDE]
- IC50 (Nav 1.7): 0.131 µM
- IC50 (Nav 1.5; in-vitro PX (PatchXpress) data): > 10 µM

Molecule: COc1cc(-c2cccc(F)c2)c(Cl)cc1-c1ncc(O)c2cc(S(=O)(=O)Nc3ccon3)ccc12 [Example 17, 1-(2-CHLORO-3′-FLUORO-5-METHOXY-[1,1′-BIPHENYL]-4-YL)-4-HYDROXY-N-(ISOXAZOL-3-YL)ISOQUINOLINE-6-SULFONAMIDE]
- IC50 (Nav 1.7; in-vitro PX): 0.0851 µM
- IC50 (Nav 1.5; in-vitro PX): > 10 µM

Molecule: COc1cc(-c2cc(F)cnc2OC)c(C#N)cc1-c1ncnc2cc(S(=O)(=O)Nc3nncs3)ccc12 [Example 20, 4-(5-CYANO-4-(5-FLUORO-2-METHOXYPYRIDIN-3-YL)-2-METHOXYPHENYL)-N-(1,3,4-THIADIAZOL-2-YL)QUINAZOLINE-7-SULFONAMIDE]
- IC50 (Nav 1.7): 0.182 µM
- IC50 (Nav 1.5; in-vitro PX (PatchXpress) data): > 10 µM

Molecule: COc1cc(-c2cccc(F)c2)c(Cl)cc1-c1nn(C)c(=O)c2cc(S(=O)(=O)Nc3ccon3)ccc12 [Example 21, 1-(2-CHLORO-3′-FLUORO-5-METHOXY-[1,1′-BIPHENYL]-4-YL)-N-(ISOXAZOL-3-YL)-3-METHYL-4-OXO-3,4-DIHYDROPHTHALAZINE-6-SULFONAMIDE]
- IC50 (Nav 1.7): 0.0424 µM
- IC50 (Nav 1.5; in-vitro PX): > 10 µM

Molecule: COc1cc(-c2cccc(C(F)(F)F)c2)c(F)cc1-c1nn(C)c(=O)c2cc(S(=O)(=O)Nc3ccon3)ccc12 [Example 25, 1-(2-FLUORO-5-METHOXY-3′-(TRIFLUOROMETHYL)-[1,1′-BIPHENYL]-4-YL)-N-(ISOXAZOL-3-YL)-3-METHYL-4-OXO-3,4-DIHYDROPHTHALAZINE-6-SULFONAMIDE]
- IC50 (Nav 1.7): 0.0941 µM
- IC50 (Nav 1.5; in-vitro PX): > 10 µM

Molecule: COc1cc(-c2cccc(F)c2)c(Cl)cc1-c1ncnc2cc(S(=O)(=O)Nc3ncon3)ccc12 [Example 26, 4-(2-CHLORO-3′-FLUORO-5-METHOXY-[1,1′-BIPHENYL]-4-YL)-N-(1,2,4-OXADIAZOL-3-YL)QUINAZOLINE-7-SULFONAMIDE]
- IC50 (Nav 1.7; in-vitro PX): 0.085 µM
- IC50 (Nav 1.5; in-vitro PX): > 10 µM

Molecule: COc1cc(-c2cccc(F)c2)c(Cl)cc1-c1ncc(C#N)c2cc(S(=O)(=O)Nc3ccon3)ccc12 [Example 27, 1-(2-CHLORO-3′-FLUORO-5-METHOXY-[1,1′-BIPHENYL]-4-YL)-4-CYANO-N-(ISOXAZOL-3-YL)ISOQUINOLINE-6-SULFONAMIDE]
- IC50 (Nav 1.7): 0.282 µM
- IC50 (Nav 1.5; in-vitro PX): > 10 µM

Molecule: COc1cc(-c2cc(F)cc(F)c2)c(C#N)cc1-c1nccc2cc(S(=O)(=O)Nc3ccncn3)ccc12 [Example 28, 1-(2-CYANO-3′,5′-DIFLUORO-5-METHOXY-[1,1′-BIPHENYL]-4-YL)-N-(PYRIMIDIN-4-YL)ISOQUINOLINE-6-SULFONAMIDE]
- IC50 (Nav 1.7): 0.144 µM
- IC50 (Nav 1.5; in-vitro Nav 1.5 PX data): > 10 µM

Molecule: COc1cc(-c2cc(F)cnc2OC)ccc1-c1nccc2cc(S(=O)(=O)Nc3nncs3)ccc12 [Example 30, 1-(4-(5-FLUORO-2-METHOXYPYRIDIN-3-YL)-2-METHOXYPHENYL)-N-(1,3,4-THIADIAZOL-2-YL)ISOQUINOLINE-6-SULFONAMIDE]
- IC50 (Nav 1.7; in-vitro Nav 1.7 PX data): 0.0801 µM
- IC50 (Nav 1.5; in-vitro Nav 1.5 PX data): > 30 µM

Molecule: COc1cc(-c2cc(F)cnc2OC)ccc1-c1nccc2cc(S(=O)(=O)Nc3ccon3)ccc12 [Example 31, 1-(4-(5-FLUORO-2-METHOXYPYRIDIN-3-YL)-2-METHOXYPHENYL)-N-(ISOXAZOL-3-YL)ISOQUINOLINE-6-SULFONAMIDE]
- IC50 (Nav 1.7; in-vitro PX (PatchXpress) data): 0.169 µM
- IC50 (Nav 1.5; in-vitro PX (PatchXpress) data): > 10 µM

Molecule: Cc1ccc(Oc2ccccc2)cc1-c1nccc2cc(S(=O)(=O)Nc3ccncn3)ccc12 [Example 39, 1-(2-METHYL-5-PHENOXYPHENYL)-N-(PYRIMIDIN-4-YL)ISOQUINOLINE-6-SULFONAMIDE]
- IC50 (Nav 1.7; in-vitro Nav 1.7 PX data): 0.488 µM
- IC50 (Nav 1.5; in-vitro Nav 1.5 PX data): > 10 µM

Molecule: COc1cc(-c2cccc(F)c2)c(Cl)cc1-c1nccc2cc(S(=O)(=O)Nc3ccon3)c(F)cc12 [Example 43, 1-(2-CHLORO-3′-FLUORO-5-METHOXY-[1,1′-BIPHENYL]-4-YL)-7-FLUORO-N-(ISOXAZOL-3-YL)ISOQUINOLINE-6-SULFONAMIDE]
- IC50 (Nav 1.7; PatchXpress (PX), in vitro): 0.0456 µM
- IC50 (Nav 1.5; PatchXpress (PX), in vitro): > 10 µM

Molecule: COc1cc(-c2cccc(F)c2)ccc1-c1nccc2cc(S(=O)(=O)Nc3ncns3)c(F)cc12 [Example 44, 7-FLUORO-1-(3′-FLUORO-3-METHOXY-[1,1′-BIPHENYL]-4-YL)-N-(1,2,4-THIADIAZOL-5-YL)ISOQUINOLINE-6-SULFONAMIDE]
- IC50 (Nav 1.7): 0.0488 µM
- IC50 (Nav 1.5; PatchXpress (PX), in vitro): > 10 µM

Molecule: COc1cc(-c2ccccc2)ccc1-c1nccc2cc(S(=O)(=O)Nc3ccon3)ccc12 [Example 49, N-(ISOXAZOL-3-YL)-1-(3-METHOXY-[1,1′-BIPHENYL]-4-YL)ISOQUINOLINE-6-SULFONAMIDE]
- IC50 (Nav 1.7; PatchXpress (PX), in vitro): 0.311 µM
- IC50 (Nav 1.5; PatchXpress (PX), in vitro): > 10 µM

Molecule: COc1cc(-c2ccccc2)ccc1-c1nccc2cc(S(=O)(=O)Nc3nncs3)ccc12 [Example 50]
- IC50 (Nav 1.7; PatchXpress (PX), in vitro): 0.174 µM
- IC50 (Nav 1.5; PatchXpress (PX), in vitro): > 10 µM

Molecule: COc1nc(OCC2CCCCC2)ccc1-c1nccc2cc(S(=O)(=O)Nc3ccncn3)ccc12 [Example 66, 1-(6-(cyclohexylmethoxy)-2-methoxy-3-pyridinyl)-N-4-pyrimidinyl-6-isoquinolinesulfonamide]
- IC50 (Nav 1.7; PatchXpress (PX), in vitro): 0.349 µM
- IC50 (Nav 1.5; PatchXpress (PX), in vitro): > 10 µM

Molecule: COc1nc(OCC2CCC(F)(F)CC2)ccc1-c1nccc2cc(S(=O)(=O)Nc3ccncn3)ccc12 [Example 69, 1-(6-((4,4-difluorocyclohexyl)methoxy)-2-methoxy-3-pyridinyl)-N-4-pyrimidinyl-6-isoquinolinesulfonamide]
- IC50 (Nav 1.7; PatchXpress (PX), in vitro): 0.459 µM
- IC50 (Nav 1.5; PatchXpress (PX), in vitro): > 30 µM

Molecule: COc1nc(NC2CCCCC2)ccc1-c1nccc2cc(S(=O)(=O)Nc3ccncn3)ccc12 [Example 73, 1-(6-(cyclohexylamino)-2-methoxy-3-pyridinyl)-N-4-pyrimidinyl-6-isoquinolinesulfonamide]
- IC50 (Nav 1.7; PatchXpress (PX), in vitro): 0.436 µM
- IC50 (Nav 1.5; PatchXpress (PX), in vitro): > 10 µM

Molecule: COc1cc(-c2ccc(Cl)c(F)c2)c(C#N)cc1-c1nccc2cc(S(=O)(=O)Nc3ccon3)ccc12 [Example 76, 1-(4′-chloro-2-cyano-3′-fluoro-5-methoxy-4-biphenylyl)-N-3-isoxazolyl-6-isoquinolinesulfonamide]
- IC50 (Nav 1.7; PatchXpress (PX), in vitro): 0.0585 µM
- IC50 (Nav 1.5; PatchXpress (PX), in vitro): > 10 µM

Molecule: COc1cc(-c2cc(C)cc(F)c2)c(C#N)cc1-c1nccc2cc(S(=O)(=O)Nc3ccon3)ccc12 [Example 77, 1-(2-cyano-3′-fluoro-5-methoxy-5′-methyl-4-biphenylyl)-N-3-isoxazolyl-6-isoquinolinesulfonamide]
- IC50 (Nav 1.7; PatchXpress (PX), in vitro): 0.0725 µM
- IC50 (Nav 1.5; PatchXpress (PX), in vitro): > 10 µM

Molecule: COc1cc(-c2ccc(C)c(Cl)c2)c(C#N)cc1-c1nccc2cc(S(=O)(=O)Nc3ccon3)ccc12 [Example 78, 1-(3′-chloro-2-cyano-5-methoxy-4′-methyl-4-biphenylyl)-N-3-isoxazolyl-6-isoquinolinesulfonamide]
- IC50 (Nav 1.7; PatchXpress (PX), in vitro): 0.033 µM
- IC50 (Nav 1.5; PatchXpress (PX), in vitro): > 10 µM

Molecule: COc1cc(-c2ccccc2C)c(C#N)cc1-c1nccc2cc(S(=O)(=O)Nc3ccon3)ccc12 [Example 79, 1-(2-cyano-5-methoxy-2′-methyl-4-biphenylyl)-N-3-isoxazolyl-6-isoquinolinesulfonamide]
- IC50 (Nav 1.7; PatchXpress (PX), in vitro): 0.088 µM
- IC50 (Nav 1.5; PatchXpress (PX), in vitro): > 10 µM

Molecule: COc1cc(-c2ccc(F)c(F)c2)c(C#N)cc1-c1nccc2cc(S(=O)(=O)Nc3ccon3)ccc12 [Example 80, 1-(2-cyano-3′,4′-difluoro-5-methoxy-4-biphenylyl)-N-3-isoxazolyl-6-isoquinolinesulfonamide]
- IC50 (Nav 1.7; PatchXpress (PX), in vitro): 0.0282 µM
- IC50 (Nav 1.5; PatchXpress (PX), in vitro): > 10 µM
